Laboratory results as given in PMC4890880 (ACS infectious diseases, 2016).
Read-outs that look alike come from different tables or passages of the source.

Tested on: HepG2-A16-CD81EGFP cells
Conditions: for IC50: read-out: Tox_IC50, HepG2 cytotoxicity
[1] = sheet 2nd round, maximal inhibition in dose response
[2] = 2nd round, maximal inhibition in dose series

With `COc1ccc(-c2ccc([C@H]3[C@@H](C#N)N(C(=O)NC(C)C)[C@@H]3CO)cc2)cc1` [BRD-K42750356-001-01-3] the IC50 (sheet "2nd round") was greater than 10 µM and the “Tox_max_inhibition (%)” value (sheet "2nd round") was 10%.
For `C[C@H](CO)N1C[C@H](C)[C@H](CN(C)S(=O)(=O)c2ccccc2)OCCCC[C@H](C)Oc2ccc(NC(=O)Nc3ccc4c(c3)OCO4)cc2C1=O` [BRD-K43975729-001-01-5], the IC50 (sheet "2nd round") was greater than 10 µM and the “Tox_max_inhibition (%)” value (sheet "2nd round") was 7%.
With `C[C@@H]1CCCCO[C@H](CN(C)S(=O)(=O)c2ccc(F)cc2)[C@@H](C)CN([C@H](C)CO)C(=O)c2cc(N(C)C)ccc2O1` [BRD-K38977317-001-01-6] the IC50 (sheet 2nd round) was greater than 10 µM and the “Tox_max_inhibition (%)” value [1] was 6%.
In the case of `O=C(Nc1ccccc1F)N1CCCCN2[C@H](C1)[C@@H](c1ccc(/C=C/c3ccccc3)cc1)[C@@H]2CO` [BRD-K41442469-001-01-2], the IC50 (sheet "2nd round") is reported as greater than 10 µM and the “Tox_max_inhibition (%)” value (sheet "2nd round") is reported as 8.49%.
With `C[C@@H]1CCCCO[C@@H](CN(C)S(=O)(=O)c2ccccc2)[C@H](C)CN([C@H](C)CO)C(=O)c2cc(NC(=O)Nc3ccc4c(c3)OCO4)ccc2O1` [BRD-K87351697-001-01-4] the IC50 (sheet 2nd round) was greater than 10 µM and the “Tox_max_inhibition (%)” value [1] was 5%.
With `C[C@@H]1CN([C@H](C)CO)C(=O)c2c(c3ccccc3n2C)-c2ccccc2CO[C@@H]1CN(C)S(=O)(=O)c1ccc([N+](=O)[O-])cc1` [BRD-K04605557-001-01-2] the IC50 (sheet 2nd round) was greater than 10 µM and the “Tox_max_inhibition (%)” value [1] was 13%.
With `COc1cccc(S(=O)(=O)N2CCCCN3[C@@H](CO)[C@@H](c4ccc(C#CCC(C)C)cc4)[C@@H]3C2)c1` [BRD-K03006541-001-01-3] the IC50 (sheet "2nd round") was greater than 10 µM and the “Tox_max_inhibition (%)” value (sheet "2nd round") was 5%.
For `Cc1ccc(S(=O)(=O)N(C)C[C@H]2Oc3cc(C#CC4CCCC4)ccc3S(=O)(=O)N([C@@H](C)CO)C[C@H]2C)cc1` [BRD-K99467823-001-01-1], the IC50 (sheet 2nd round) was greater than 10 µM and the “Tox_max_inhibition (%)” value [1] was 31%.
`COc1ccccc1S(=O)(=O)N(C)C[C@@H]1Oc2cc(/C=C/c3ccccc3)ccc2S(=O)(=O)N([C@H](C)CO)C[C@H]1C` [BRD-K26611181-001-01-8] was tested, and the IC50 (sheet 2nd round) was greater than 10 µM and the “Tox_max_inhibition (%)” value [1] was 33%.
For `CO[C@@H]1CN(C)C(=O)c2ccc(NC(=O)NC(C)C)cc2OC[C@@H](C)N(Cc2ccccc2)C[C@H]1C` [BRD-K91191258-001-01-9], the IC50 (sheet 2nd round) was greater than 10 µM and the “Tox_max_inhibition (%)” value [1] was 9%.
`C[C@H]1CCCCO[C@H](CN(C)S(=O)(=O)c2ccccc2)[C@@H](C)CN([C@@H](C)CO)C(=O)c2cc(NC(=O)Nc3ccc4c(c3)OCO4)ccc2O1` [BRD-K40819914-001-01-3] was tested, and the IC50 (sheet "2nd round") was greater than 10 µM and the “Tox_max_inhibition (%)” value (sheet "2nd round") was 8.49%.
In the case of `CO[C@@H]1CN(C)C(=O)c2ccc(NC(=O)Nc3ccccc3F)cc2OC[C@@H](C)N(Cc2ccccc2F)C[C@H]1C` [BRD-K00229958-001-01-0], the IC50 (sheet 2nd round) is reported as greater than 10 µM and the “Tox_max_inhibition (%)” value [1] is reported as 7%.
In the case of `CCCNC(=O)Nc1ccc2c(c1)OC[C@@H](C)N(Cc1ccccc1)C[C@@H](C)[C@H](OC)CN(C)C2=O` [BRD-K76980944-001-01-4], the “Tox_max_inhibition (%)” value [2] is reported as 6% and the IC50 (2nd round, unit inferred) is reported as greater than 10 µM.
For `COc1ccc(C(=O)N2C[C@@H]3[C@H](c4ccccc42)[C@H](CO)N3C(=O)Cc2ccccn2)cc1` [BRD-K13582094-001-01-2], the IC50 (sheet 2nd round) was greater than 10 µM and the “Tox_max_inhibition (%)” value [1] was 4%.
In the case of `O=C(C1CC1)N1C[C@@H]2N[C@H](C1)C2c1ccc(-c2ccccc2F)cc1` (stereo partly shown) [BRD-K95724677-019-01-8], the IC50 (sheet 2nd round) is reported as 3.72 µM and the “Tox_max_inhibition (%)” value [1] is reported as 93%.
In the case of `COc1ccc(S(=O)(=O)Nc2ccc3c(c2)C(=O)N([C@H](C)CO)C[C@@H](C)[C@H](CN(C)Cc2ccc(C(F)(F)F)cc2)OCCCC[C@@H](C)O3)cc1` [BRD-K02689416-001-01-9], the IC50 (sheet 2nd round) is reported as greater than 10 µM and the “Tox_max_inhibition (%)” value [1] is reported as 12%.
`Fc1cccc(CN2C[C@@H]3N[C@H](C2)C3c2ccc(/C=C/c3ccccc3)cc2)c1` (stereo partly shown) [BRD-K69682028-019-01-6] was tested, and the IC50 (sheet "2nd round") was greater than 10 µM and the “Tox_max_inhibition (%)” value (sheet "2nd round") was 16%.
With `COc1ccccc1C#Cc1ccc([C@@H]2[C@@H](CO)N3CCCCN(C(=O)C4CCC4)C[C@H]23)cc1` [BRD-K36773541-001-01-9] the IC50 (sheet 2nd round) was greater than 10 µM and the “Tox_max_inhibition (%)” value [1] was 6%.
For `COc1ccccc1NC(=O)Nc1ccc2c(c1)OC[C@@H](C)N(Cc1ccccc1Cl)C[C@@H](C)[C@H](OC)CN(C)C2=O` [BRD-K28918058-001-01-5], the IC50 (sheet 2nd round) was greater than 10 µM and the “Tox_max_inhibition (%)” value [1] was 13%.
With `CCCNC(=O)N1[C@H](C#N)[C@@H](c2ccccc2C2=CCCCC2)[C@@H]1CO` [BRD-K70760948-001-01-2] the “Tox_max_inhibition (%)” value [2] was 10% and the IC50 (2nd round, unit inferred) was greater than 10 µM.
For `N#C[C@@H]1[C@H](c2ccccc2C2=CCCCC2)[C@H](CO)N1S(=O)(=O)c1ccccc1` [BRD-K90570429-001-01-9], the IC50 (sheet "2nd round") was greater than 10 µM and the “Tox_max_inhibition (%)” value (sheet "2nd round") was 8%.
In the case of `CC(C)(C)[S+]([O-])N1Cc2cc(C(=O)NCc3ccc4c(c3)OCO4)nc(-c3cccc(-c4cc5ccccc5o4)c3)c2[C@H]1CCO` (stereo partly shown) [BRD-K19560511-001-03-3], the “Tox_max_inhibition (%)” value [2] is reported as 12% and the IC50 (2nd round, unit inferred) is reported as greater than 10 µM.
`COc1ccc(NC(=O)N2CCCCN3[C@H](CN(C)C)[C@H](c4ccc(C#Cc5ccccc5)cc4)[C@@H]3C2)cc1` [BRD-K78727929-001-08-1] was tested, and the IC50 (sheet 2nd round) was 8.47 µM and the “Tox_max_inhibition (%)” value [1] was 100%.
In the case of `CCCC(=O)Nc1ccc2c(c1)OC[C@@H](C)N(Cc1cc(F)ccc1F)C[C@@H](C)[C@H](OC)CN(C)C2=O` [BRD-K36104357-001-01-0], the IC50 (sheet "2nd round") is reported as greater than 10 µM and the “Tox_max_inhibition (%)” value (sheet "2nd round") is reported as 18%.
`N#C[C@@H]1[C@H](c2ccccc2)[C@H](CO)N1C(=O)Nc1cccc(F)c1` [BRD-K99496840-001-01-9] was tested, and the IC50 (sheet 2nd round) was greater than 10 µM and the “Tox_max_inhibition (%)” value [1] was 4.23%.
In the case of `COc1ccc(C#Cc2ccc3c(c2)O[C@@H](CN(C)C(=O)Nc2cccc(OC)c2)[C@@H](C)CN([C@H](C)CO)S3(=O)=O)cc1` [BRD-K04089243-001-01-9], the IC50 (sheet 2nd round) is reported as greater than 10 µM and the “Tox_max_inhibition (%)” value [1] is reported as 2.28%.
`C[C@@H]1CCCCO[C@H](CN(C)S(=O)(=O)c2ccccc2)[C@@H](C)CN([C@H](C)CO)C(=O)c2cc(NC(=O)Nc3ccc4c(c3)OCO4)ccc2O1` [BRD-K06373569-001-01-1] was tested, and the IC50 (sheet "2nd round") was greater than 10 µM and the “Tox_max_inhibition (%)” value (sheet "2nd round") was 14%.
`CCCNC(=O)N1[C@H](C#N)[C@H](c2ccc(C#Cc3cccc(F)c3)cc2)[C@H]1CO` [BRD-K31857539-001-01-9] was tested, and the IC50 (sheet "2nd round") was greater than 10 µM and the “Tox_max_inhibition (%)” value (sheet "2nd round") was 6%.
`COc1ccc2c3c(n(C)c2c1)[C@@H](CO)N(Cc1ccc2c(c1)OCO2)CC31CN(C(=O)c2ccc3c(c2)OCO3)C1` [BRD-K07064121-001-01-6] was tested, and the IC50 (sheet "2nd round") was greater than 10 µM and the “Tox_max_inhibition (%)” value (sheet "2nd round") was 18%.
`CN1c2ccc(C#Cc3cccnc3)cc2[C@@H]2[C@@H](CCN2C(=O)c2cccc(F)c2)[C@@H]1CO` [BRD-K18296007-001-01-0] was tested, and the “Tox_max_inhibition (%)” value [2] was 14% and the IC50 (2nd round, unit inferred) was greater than 10 µM.
With `COc1ccc(NC(=O)N2CCCCN3[C@H](CO)[C@@H](c4ccc(-c5ccccc5F)cc4)[C@H]3C2)cc1` [BRD-K55569739-001-01-9] the IC50 (sheet 2nd round) was greater than 10 µM and the “Tox_max_inhibition (%)” value [1] was 3.75%.
In the case of `C/C=C/c1ccc([C@H]2[C@@H](CO)N(C(=O)Nc3ccccc3F)[C@H]2C#N)cc1` [BRD-K12121340-001-01-2], the “Tox_max_inhibition (%)” value [2] is reported as 9% and the IC50 (2nd round, unit inferred) is reported as greater than 10 µM.
With `C[C@@H]1CN([C@@H](C)CO)C(=O)c2cc(C#Cc3ccccc3)cnc2O[C@H]1CN(C)C(=O)c1ccccc1` [BRD-K77826636-001-01-1] the “Tox_max_inhibition (%)” value [2] was 20% and the IC50 (2nd round, unit inferred) was greater than 10 µM.
For `Cc1ccc(S(=O)(=O)N2CC[C@H]3[C@H](CO)Nc4ccc(-c5cccc(C(=O)N(C)C)c5)cc4[C@H]32)cc1` [BRD-K64741770-001-01-3], the IC50 (sheet 2nd round) was greater than 10 µM and the “Tox_max_inhibition (%)” value [1] was 15%.
For `CCCNC(=O)N1[C@H](C#N)[C@H](c2ccccc2C2=CCCCC2)[C@@H]1CO` [BRD-K29207675-001-01-5], the “Tox_max_inhibition (%)” value [2] was 12% and the IC50 (2nd round, unit inferred) was greater than 10 µM.
